Assay results published in US12310967B2, “Compositions and methods of treatment for neurological disorders comprising motor neuron diseases” (Gliapharm SA, priority 2017, dated 2025).
Read-outs that look alike come from different tables or passages of the source.

Experiments:
[1] = test system: primary astrocytes; test: Extracellular lactate quantification; assay type: cell-based, mouse; conditions: for Score_LACTATE: Appendix I, secondary screening: extracellular lactate; for EC50: Mus musculus, Astrocyte
Outline: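 Astrocytes were stimulated 90 min at 37 °C in D5030 medium with 5 mM glucose and 44 mM bicarbonate, with compound at 0-100 μM. Extracellular lactate was measured enzymatically with LDH/NAD in glycine-semicarbazide buffer, pH 10, for 1 h at 37 °C. NADH fluorescence (340/450 nm) was converted to lactate using an L-lactate standard curve.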

[2] = test system: primary astrocytes; test: High throughput screening (HTS) for lactate secretion: acidification of extracellular medium (SNARF5); assay type: cell-based, mouse; set-up: key to Score / HTS Score (SNARF5) / Score_SNARF: fraction of plate positive-control activity (1 = 100%); conditions: for Score / Score_SNARF: Appendix I; for Score: CDC54K primary screening, relative to CCCP 2 uM; for Score / HTS Score (SNARF5): 10 uM, 90 min; for Score_SNARF: primary screening confirmation (SNARF5); for HTS Score (SNARF5): CDC54K library, relative to positive control CCCP 2 uM
Outline: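 Mouse primary cortical astrocytes (DIV17) exposed to compounds at 10 uM final (1% DMSO) for 90 min in low-bicarbonate medium with SNARF-5F. Extracellular pH from 630/580 nm emission ratio (ex 480 nm); hits scored as % of CCCP 2 uM positive control, duplicate plates.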

[3] = 1.5 h, CDC54K hits, 0-100 uM, 90 min, read-out: Lactate EC50

SMILES | EC50 [1, 3] | EC50 ([1]; Appendix II, lactate secretion, read-out: EC50) | Score_LACTATE [1] | Score [2] | Score_SNARF [2] | HTS Score (SNARF5) [2] | Score Lact. ([1]; Appendix II, CDC54K library)
CSc1cccc(NS(=O)(=O)c2ccc3onc(C(=O)N4CCCC4)c3c2)c1 [L995-0125] | 2 µM |  | 0.9122 | 0.8545 | 0.8016 | 0.854 | 
CC(=O)N1CCc2sc(S(=O)(=O)N3CCN(c4ccccc4C)CC3)cc2C1 [P025-0159] | 8.7 µM |  | 0.9232 | 0.9535 | 0.8007 | 0.953 | 
Cc1ccccc1NC(=O)C1CCCN(c2ncnc3oc(C)c(C)c23)C1 (stereo not shown) [F228-0422] | 0.5 µM |  | 0.6364 | 1.057 | 0.7702 | 1.058 | 
N#Cc1ccc(C(=O)N2CCC(Nc3ncnc4c3CCC4)C2)cc1 (stereo not shown) [T636-2387] | 11.5 µM | 6.83 µM | 0.3005 |  | 0.4809 | 0.445 | 0.30
CCn1nccc1-c1csc(S(=O)(=O)Nc2ccc(Cl)cc2F)c1 [L924-1031] | 25.3 µM |  | 1.632 | 0.9286 | 0.8713 | 0.929 | 
CCc1nc(-c2csc(S(=O)(=O)NCc3ccc4c(c3)OCO4)c2)no1 [L287-0468] | 7.9 µM |  | 0.6179 | 0.5971 | 0.6592 | 0.597 | 
c1ccc2c(c1)CCN(c1ncnc3sccc13)C2 [T0517-8250] |  |  | 0.9269 |  | 0.9124 |  | 

The next lines start with results.

EC50 [1, 3] | EC50 ([1]; Appendix II, lactate secretion, read-out: EC50) | SMILES | Score_LACTATE [1] | Score [2] | Score_SNARF [2] | HTS Score (SNARF5) [2] | Score Lact. ([1]; Appendix II, CDC54K library)
11 µM |  | COc1cc(C)c(Cl)cc1S(=O)(=O)NCc1ccncc1 [T5580243] | 0.7229 | 0.8528 | 0.8565 | 0.853 | 
7.9 µM |  | O=C1CCCN1c1ccc(S(=O)(=O)Nc2cccc(/C=C/c3ccccn3)c2)cc1 [T5644989] | 0.7859 | 0.6796 | 0.8385 | 0.68 | 
10 µM |  | CCc1ccc(S(=O)(=O)N2CCSC2c2ccc(OC)c(OC)c2)cc1 (stereo not shown) [T5463586] | 0.3936 | 0.7707 | 0.5553 | 0.77 | 
8.8 µM |  | CCc1ccc(S(=O)(=O)Nc2ccc3[nH]ncc3c2)cc1 [T5599014] | 0.4419 | 0.5424 | 0.5778 | 0.542 | 
11.5 µM |  | Cc1nc2ccc(NS(=O)(=O)c3cccc(F)c3)cc2s1 [T6937001] | 0.9088 | 0.8094 | 0.8557 | 0.809 | 
